Laboratory results reported in patent US10189809B2, “SGC stimulators” (Ironwood Pharmaceuticals, Inc., priority 2010, dated 2019).
Like-named read-outs stand apart in the source and are kept apart here.

Columns and labels:
[1] = molecular target: T1, soluble guanylate cyclase (sGC) (Homo sapiens (Human), UniProt Q02108+Q02153); assay: sGC-HEK-cGMP assay run in the absence of SNP (HEK WC assay); type: cell-based; settings: compound at 30 μM, absence of SNP
Outline: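 Intracellular cGMP was measured by LC/MS, using a standard curve, in HEK293 cells treated with compound for 10 min at 37° C after a 15 min 0.5 mM IBMX pretreatment, with no SNP present. Lysis and quench used 0.1 M HCl. EC50 values came from concentration-response fits.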

[2] = molecular target: T1, soluble guanylate cyclase (sGC); assay: sGC-HEK-cGMP assay run with SNP incubation (HEK WC assay); type: cell-based; settings: for HEK WC Assay (fold increase at 30 μM in the presence of 10 μM SNP): compound at 30 μM; for EC50: in the presence of 10 uM SNP; for Emax at 10 µM: read-out: HEK WC Assay (% Emax at 10 μM/with 10 uM SNP); for Emax at 30 µM: read-out: HEK WC Assay (% Emax at 30 μM/with 10 uM SNP)
Outline: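 EC50 values derive from concentration-response curves of intracellular cGMP in HEK293 cells, which express sGC endogenously. Compound and sodium nitroprusside were co-incubated 10 min at 37 °C after a 15-min 0.5 mM IBMX step, with 0.1 M HCl lysis and 1% DMSO vehicle.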

[3] = molecular target: T2, Human soluble guanylate cyclase enzyme (hsGC) (Homo sapiens (Human), UniProt Q02108+Q02153); assay: Purified human sGC enzyme activity assay; type: biochemical; settings: without the addition of SNP; for sGC Enzyme (fold increase at 30 μM): 30 μM compound
Outline: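 Values are fold-change of sGC specific activity, nmoles cGMP per mg enzyme per min, relative to DMSO controls. Reactions: 5 ng human enzyme, 300 μM GTP, 1 mM IBMX, 2 mM MgCl2/DTT, 0.1 M Tris pH 8.0, compound 10 or 30 μM final, 37° C for 30 minutes, methanol quench. cGMP read against a 0.078-10 μM final standard curve.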

[4] = molecular target: T2, Human soluble guanylate cyclase enzyme (hsGC); assay: Purified human sGC enzyme synergy assay in the presence of 1 μM sodium nitroprusside (SNP); type: biochemical; settings: 30 μM compound, with the addition of SNP
Outline: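 Fold-change in cGMP-forming specific activity (nmol/mg/min) versus DMSO, with 1 μM SNP present throughout. Reactions held 30 min at 37 °C with 10 or 30 μM compound, 5 ng human sGC, 300 μM GTP, 1 mM IBMX and 2 mM MgCl2 at pH 8.0, then stopped with cold methanol.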

Thoracic aortic rings = assay: Alternative thoracic aortic rings assay (Example 19b; resting tension as 100% inhibition); design: species or system rat; settings: Table 10A; for inhibition at 1 µM / inhibition at 3 µM / inhibition at 10 µM / EC50: Rattus norvegicus; for inhibition at 1 µM: read-out: Percent Relaxation at 1 μM; for inhibition at 3 µM: read-out: Percent Relaxation at 3 μM; for inhibition at 10 µM: read-out: Percent Relaxation at 10 μM; for EC50: read-out: Aortic Ring EC50
Outline: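 EC50 values come from cumulative concentration-response relaxation of phenylephrine (100 ng/mL)-contracted thoracic aortic rings from 275-299 g male Sprague-Dawley rats. Rings were equilibrated at 1.0 g tension in oxygenated Krebs-Henseleit at 37 °C, with compounds given in DMSO and tension measured isometrically.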

[5] = read-out: HEK WC Assay (% Emax at 10 μM with 10 uM SNP)
[6] = read-out: HEK WC Assay (% Emax at 30 μM with 10 uM SNP)

T2 sequence (Q02153 whole entry): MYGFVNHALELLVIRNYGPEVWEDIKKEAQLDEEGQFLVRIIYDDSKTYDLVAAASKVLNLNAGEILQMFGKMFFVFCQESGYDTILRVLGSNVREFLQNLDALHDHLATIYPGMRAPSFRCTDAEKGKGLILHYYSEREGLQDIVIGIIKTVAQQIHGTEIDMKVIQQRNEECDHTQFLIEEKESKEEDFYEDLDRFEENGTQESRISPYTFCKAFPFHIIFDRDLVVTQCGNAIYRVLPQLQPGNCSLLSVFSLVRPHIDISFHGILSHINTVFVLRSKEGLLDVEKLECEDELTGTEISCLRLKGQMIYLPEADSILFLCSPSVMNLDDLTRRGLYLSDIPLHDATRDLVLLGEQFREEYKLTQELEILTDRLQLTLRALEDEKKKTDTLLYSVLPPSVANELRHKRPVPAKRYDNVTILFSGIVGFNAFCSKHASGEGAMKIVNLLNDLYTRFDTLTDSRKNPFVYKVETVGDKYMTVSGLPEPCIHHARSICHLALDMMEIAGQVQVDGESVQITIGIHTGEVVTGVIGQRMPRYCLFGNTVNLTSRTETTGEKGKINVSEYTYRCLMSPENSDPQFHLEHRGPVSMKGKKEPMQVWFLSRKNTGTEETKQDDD
T2 sequence (Q02108 whole entry): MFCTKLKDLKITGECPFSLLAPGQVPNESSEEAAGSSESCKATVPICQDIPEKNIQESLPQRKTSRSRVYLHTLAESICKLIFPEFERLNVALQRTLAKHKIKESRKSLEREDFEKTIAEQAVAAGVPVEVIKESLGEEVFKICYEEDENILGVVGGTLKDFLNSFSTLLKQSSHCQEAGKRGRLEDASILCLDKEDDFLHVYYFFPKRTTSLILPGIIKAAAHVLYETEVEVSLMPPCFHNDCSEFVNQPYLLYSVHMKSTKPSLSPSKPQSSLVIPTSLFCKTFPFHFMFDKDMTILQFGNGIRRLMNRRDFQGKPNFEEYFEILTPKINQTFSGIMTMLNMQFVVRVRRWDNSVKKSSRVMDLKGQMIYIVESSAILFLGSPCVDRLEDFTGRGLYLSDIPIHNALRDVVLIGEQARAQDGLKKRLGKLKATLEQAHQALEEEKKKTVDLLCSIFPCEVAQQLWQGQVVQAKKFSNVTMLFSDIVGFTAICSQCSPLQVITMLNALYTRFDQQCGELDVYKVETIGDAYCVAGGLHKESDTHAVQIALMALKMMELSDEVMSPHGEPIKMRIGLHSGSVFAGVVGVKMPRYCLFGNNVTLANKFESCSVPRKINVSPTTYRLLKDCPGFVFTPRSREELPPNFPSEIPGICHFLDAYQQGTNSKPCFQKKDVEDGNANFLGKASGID
T1 sequence (Q02153 whole entry): as the sequence (Q02153 whole entry) above
T1 sequence (Q02108 whole entry): as the sequence (Q02108 whole entry) above

HEK WC Assay (fold increase at 30 μM in the absence of SNP) [1] | HEK WC Assay (fold increase at 30 μM in the presence of 10 μM SNP) [2] | EC50 [2] | Emax ([2]; read-out: HEK WC Assay (% Emax at 1 μM with 10 uM SNP)) | Emax [2, 5] | Emax at 10 µM [2] | Emax [2, 6] | Emax at 30 µM [2] | sGC Enzyme (fold increase at 30 μM) [3] | sGC Enzyme (fold increase at 30 μM with SNP) [4] | EC50 (Thoracic aortic rings) | EC50 ([2]; read-out: HEK WC Assay in the presence of 10 uM SNP EC50) | sGC Enzyme (fold increase at 10 μM) ([3]; 10 μM compound) | SMILES | inhibition at 1 µM (Thoracic aortic rings; 1 μM) | inhibition at 3 µM (Thoracic aortic rings) | inhibition at 10 µM (Thoracic aortic rings) | Percent Relaxation at 1 μM (Thoracic aortic rings; 1 μM, printed as number or words instead of code)
D (D = 5 to <10 fold increase) | E (E = 10 to <20 fold increase) | < 20000 nM | 40 to 60% | 60 to 80% | 20 to 40% | 20 to 40% | 20 to 40% | C (C = 5 to <10 fold increase) | D (D = 10 to <30 fold increase) |  |  |  | CC(C)(C)NC(=O)c1cnc(-c2cc(-c3ccon3)n(Cc3ccccc3F)n2)nc1N [Compound I-136] |  |  |  | 
 |  |  |  |  | 20 to 40% |  | 40 to 60% | B (B = 2 to <5 fold increase) | C (C = 5 to <10 fold increase) | < 2000 nM |  |  | COC(=O)Nc1c(N)nc(-c2cc(-c3ncco3)n(Cc3ccccc3F)n2)nc1N [Compound I-99] | 0 to 10% | 20 to 40% | 80 to 100% | 
 |  |  |  |  | 100 to 120% |  | 80 to 100% | C (C = 5 to <10 fold increase) | D (D = 10 to <30 fold increase) | < 2000 nM |  |  | CC(=O)Nc1cnc(-c2cc(-c3ccon3)n(Cc3ccccc3F)n2)nc1N [Compound I-112, N-(4-amino-2-(1-(2-fluorobenzyl)-5-(isoxazol-3-yl)-1H-pyrazol-3-yl)pyrimidin-5-yl)acetamide] | 80 to 100% | > 120% | 100 to 120% | 
B (B = 1 to <2 fold increase) | C (C = 2 to <5 fold increase) |  |  | 10 to 20% | 10 to 20% | 20 to 40% | 20 to 40% | A (A = no increase to <2 fold increase) | B (B = 2 to <5 fold increase) |  |  |  | Nc1nc(-c2cc(-c3ccon3)n(Cc3ccccc3F)n2)ncc1N=C(c1ccccc1)c1ccccc1 [Compound I-123, N5-(diphenylmethylene)-2-(1-(2-fluorobenzyl)-5-(isoxazol-3-yl)-1H-pyrazol-3-yl)pyrimidine-4,5-diamine] |  |  |  | 
C (C = 2 to <5 fold increase) | D (D = 5 to <10 fold increase) |  |  | 40 to 60% | 100 to 120% | 40 to 60% | 20 to 40% | B (B = 2 to <5 fold increase) | C (C = 5 to <10 fold increase) |  | 40000 to 60000 nM |  | COc1ccc(C2=Nc3nc(-c4cc(-c5ccon5)n(Cc5ccccc5F)n4)ncc3C(C)(C)O2)cc1 [Compound I-137] |  |  |  | 
 |  |  |  |  | 40 to 60% |  | 20 to 40% | B (B = 2 to <5 fold increase) | C (C = 5 to <10 fold increase) | < 2000 nM |  |  | Nc1nc(-c2cc(-c3ccon3)n(Cc3ccccc3F)n2)ncc1-c1ccncc1 [Compound I-102] | 20 to 40% | 60 to 80% | 80 to 100% | 
 |  |  |  |  |  |  | 100 to 120% | C (C = 5 to <10 fold increase) | D (D = 10 to <30 fold increase) | < 2000 nM |  |  | Fc1ccccc1Cn1nc(-c2ncccn2)cc1-c1cscn1 [Compound I-85] | 60 to 80% | 80 to 100% | 100 to 120% | 
 |  |  |  |  | 20 to 40% |  | 20 to 40% | D (D = 10 to <30 fold increase) | D (D = 10 to <30 fold increase) |  |  |  | COC(=O)N(C)c1c(N)nc(-c2cc(-c3ccsc3)n(Cc3ccccc3F)n2)nc1N [Compound I-72] |  | 20 to 40% | 60 to 80% | 3.1
 |  |  |  |  | 80 to 100% |  | 60 to 80% | C (C = 5 to <10 fold increase) | D (D = 10 to <30 fold increase) | 2000 to 4000 nM |  |  | CN(C(=O)OC(C)(C)C)c1cnc(-c2cc(-c3ccon3)n(Cc3ccccc3F)n2)nc1N [Compound I-115] | 20 to 40% | 40 to 60% | 80 to 100% | 
 |  |  |  |  | 60 to 80% |  | 60 to 80% | B (B = 2 to <5 fold increase) | C (C = 5 to <10 fold increase) | < 2000 nM |  |  | N#Cc1cnc(-c2cc(-c3ccon3)n(Cc3ccccc3F)n2)nc1O [Compound I-110] | 40 to 60% | 60 to 80% | 80 to 100% | 
B (B = 1 to <2 fold increase) | B (B = 1 to <2 fold increase) |  |  | 10 to 20% | 10 to 20% | 0 to 10% | 0 to 10% | A (A = no increase to <2 fold increase) | A (A = no increase to <2 fold increase) |  |  |  | Nc1cc(C(F)(F)F)nc(-c2cc(-c3ccon3)n(Cc3ccccc3F)n2)n1 [Compound I-117] |  |  |  | 
 |  |  |  |  | 40 to 60% |  | 60 to 80% | C (C = 5 to <10 fold increase) | D (D = 10 to <30 fold increase) | < 2000 nM |  |  | Nc1ccnc(-c2cc(-c3nccs3)n(Cc3ccccc3F)n2)n1 [Compound I-86] | 40 to 60% | 80 to 100% | 100 to 120% | 
 |  |  |  |  | 20 to 40% |  | 40 to 60% | B (B = 2 to <5 fold increase) | C (C = 5 to <10 fold increase) | < 2000 nM |  |  | COC(=O)N(C)c1c(N)nc(-c2cc(-c3ncco3)n(Cc3ccccc3F)n2)nc1N [Compound I-100] | 20 to 40% | 60 to 80% | 100 to 120% | 
 |  |  |  |  | 80 to 100% |  | 100 to 120% | C (C = 5 to <10 fold increase) | C (C = 5 to <10 fold increase) | < 2000 nM |  |  | COC(=O)N(C)c1cnc(-c2cc(-c3ccon3)n(Cc3ccccc3F)n2)nc1N [Compound I-105] | 60 to 80% | 80 to 100% | 100 to 120% | 
 |  |  |  |  | 20 to 40% |  | 20 to 40% | B (B = 2 to <5 fold increase) | D (D = 10 to <30 fold increase) | < 2000 nM |  |  | Nc1ccnc(-c2cc(-c3cocn3)n(Cc3ccccc3F)n2)n1 [Compound I-98] | 60 to 80% | 100 to 120% | 100 to 120% | 
 |  |  |  |  | 40 to 60% |  | 40 to 60% | D (D = 10 to <30 fold increase) | D (D = 10 to <30 fold increase) | < 2000 nM |  |  | Nc1ccnc(-c2cc(-c3ccon3)n(Cc3ccccc3F)n2)n1 [Compound I-97] | 80 to 100% | 100 to 120% | 100 to 120% | 
 |  |  |  |  | 10 to 20% |  | 20 to 40% | B (B = 2 to <5 fold increase) | D (D = 10 to <30 fold increase) | 2000 to 4000 nM |  | A (A = no increase to <2 fold increase) | Fc1ccccc1Cn1nc(-c2ncccn2)cc1-c1ccccn1 [Compound I-75] | 10 to 20% | 20 to 40% | 60 to 80% | 
